Results: PubChem BioAssay (NCI)
Where “and” joins values, the source holds several entries; their conditions need not be identical. Equal entries are not always repeated.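 A five-concentration, 48-hour dose response in 96-well plates underlies each endpoint, interpolated linearly between surrounding concentrations. GI50 marks 50% less growth. TGI: concentration producing complete growth inhibition.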

Columns and labels:
Experiment in all cases: NCI-60 cell line screen, 48 h
HCT-15 colon = system: HCT-15 colon
OVCAR-3 ovarian = system: OVCAR-3 ovarian
LOX IMVI melanoma = system: LOX IMVI melanoma
SK-MEL-28 melanoma = system: SK-MEL-28 melanoma
UO-31 renal = system: UO-31 renal
OVCAR-5 ovarian = system: OVCAR-5 ovarian
SF-539 CNS = system: SF-539 CNS
KM12 colon = system: KM12 colon
IGROV1 ovarian = system: IGROV1 ovarian
RPMI-8226 leukemia = system: RPMI-8226 leukemia
CCRF-CEM leukemia = system: CCRF-CEM leukemia
ACHN renal = system: ACHN renal
RXF 393 renal = system: RXF 393 renal
U251 CNS = system: U251 CNS
A549 NSCLC = system: A549 NSCLC
MOLT-4 leukemia = system: MOLT-4 leukemia
HL-60(TB) leukemia = system: HL-60(TB) leukemia
SK-MEL-5 melanoma = system: SK-MEL-5 melanoma
NCI-H226 lung = system: NCI-H226 lung
MDA-MB-231 breast = system: MDA-MB-231 breast
SN12C renal = system: SN12C renal
MALME-3M melanoma = system: MALME-3M melanoma
HCC-2998 colon = system: HCC-2998 colon
HT29 colon = system: HT29 colon
COLO 205 colon = system: COLO 205 colon
NCI-H460 lung = system: NCI-H460 lung
NCI/ADR-RES ovarian = system: NCI/ADR-RES ovarian
TK-10 renal = system: TK-10 renal
M14 melanoma = system: M14 melanoma
K-562 leukemia = system: K-562 leukemia
DU-145 prostate = system: DU-145 prostate
MDA-MB-435 = system: MDA-MB-435
UACC-62 melanoma = system: UACC-62 melanoma
SNB-75 CNS = system: SNB-75 CNS
SF-268 CNS = system: SF-268 CNS
OVCAR-8 ovarian = system: OVCAR-8 ovarian
HOP-92 NSCLC = system: HOP-92 NSCLC
BT-549 breast = system: BT-549 breast
SF-295 CNS = system: SF-295 CNS
SK-MEL-2 melanoma = system: SK-MEL-2 melanoma
SK-OV-3 ovarian = system: SK-OV-3 ovarian
UACC-257 melanoma = system: UACC-257 melanoma

Compound: Cc1nc2ccccc2c(/C=C/c2ccc(Cl)cc2)c1C(=O)/C=C/c1ccccc1
- GI50 (HCT-15 colon): 1.36 µM
- TGI (HCT-15 colon): 4.03 µM
- GI50 (OVCAR-3 ovarian): 1.36 µM
- TGI (OVCAR-3 ovarian): 2.77 µM
- GI50 (LOX IMVI melanoma): 1.64 µM
- TGI (LOX IMVI melanoma): 3.03 µM
- GI50 (SK-MEL-28 melanoma): 1.74 µM
- TGI (SK-MEL-28 melanoma): 3.22 µM
- GI50 (UO-31 renal): 1.18 µM
- TGI (UO-31 renal): 2.4 µM
- GI50 (OVCAR-5 ovarian): 1.83 µM
- TGI (OVCAR-5 ovarian): 3.39 µM
- GI50 (SF-539 CNS): 1.7 µM
- TGI (SF-539 CNS): 3.11 µM
- GI50 (KM12 colon): 1.56 µM
- TGI (KM12 colon): 3.04 µM
- GI50 (IGROV1 ovarian): 1.24 µM
- TGI (IGROV1 ovarian): 3.68 µM
- GI50 (RPMI-8226 leukemia): 1.26 µM
- TGI (RPMI-8226 leukemia): 6.5 µM
- GI50 (CCRF-CEM leukemia): 1.32 µM
- TGI (CCRF-CEM leukemia): > 100 µM
- GI50 (ACHN renal): 1.53 µM
- TGI (ACHN renal): 2.86 µM
- GI50 (RXF 393 renal): 1.6 µM
- TGI (RXF 393 renal): 2.98 µM
- GI50 (U251 CNS): 1.61 µM
- TGI (U251 CNS): 3.07 µM
- GI50 (A549 NSCLC): 2.24 µM
- TGI (A549 NSCLC): 6.54 µM
- GI50 (MOLT-4 leukemia): 0.884 µM
- TGI (MOLT-4 leukemia): 4.88 µM
- GI50 (HL-60(TB) leukemia): 2.01 µM
- TGI (HL-60(TB) leukemia): 4.58 µM
- GI50 (SK-MEL-5 melanoma): 1.61 µM
- TGI (SK-MEL-5 melanoma): 2.96 µM
- GI50 (NCI-H226 lung): 1.58 µM
- TGI (NCI-H226 lung): 3.22 µM
- GI50 (MDA-MB-231 breast): 1.87 µM
- TGI (MDA-MB-231 breast): 4.37 µM
- GI50 (SN12C renal): 1.67 µM
- TGI (SN12C renal): 3.36 µM
- GI50 (MALME-3M melanoma): 1.63 µM
- TGI (MALME-3M melanoma): 3.01 µM
- GI50 (HCC-2998 colon): 1.66 µM
- TGI (HCC-2998 colon): 3.3 µM
- GI50 (HT29 colon): 1.58 µM
- TGI (HT29 colon): > 100 µM
- GI50 (COLO 205 colon): 1.98 µM
- TGI (COLO 205 colon): 4.62 µM
- GI50 (NCI-H460 lung): 1.39 µM
- TGI (NCI-H460 lung): 3.14 µM

Compound: Cc1nc(Nc2ncc(C(=O)Nc3c(C)cccc3Cl)s2)cc(N2CCN(CCO)CC2)n1
- GI50 (HCT-15 colon): 792 nM [middle of 4 runs]
- GI50 (LOX IMVI melanoma): 14.2 nM [middle of 4 runs]
- TGI (SK-MEL-28 melanoma): 29 µM and > 10 µM and 20 µM
- GI50 (OVCAR-5 ovarian): 38.1 nM [middle of 4 runs]
- GI50 (SF-539 CNS): 53.3 nM [middle of 4 runs]
- GI50 (KM12 colon): 7.66 µM [middle of 4 runs]
- GI50 (NCI/ADR-RES ovarian): 3.2 µM [middle of 4 runs]
- GI50 (TK-10 renal): 0.0222 µM and 0.0109 µM and 0.00843 µM
- GI50 (M14 melanoma): 3.51 µM [middle of 4 runs]
- GI50 (U251 CNS): 3.17 µM [middle of 4 runs]
- GI50 (A549 NSCLC): 49.9 nM [middle of 4 runs]
- GI50 (K-562 leukemia): < 0.01 µM and 0.002 µM
- GI50 (DU-145 prostate): 158 nM [middle of 4 runs]
- TGI (DU-145 prostate): > 10 µM and 20 µM and 13.5 µM
- GI50 (MDA-MB-435): 5.7 µM [middle of 4 runs]
- GI50 (MDA-MB-231 breast): 19.7 nM [middle of 4 runs]
- GI50 (MALME-3M melanoma): 6.6 µM [middle of 4 runs]
- GI50 (UACC-62 melanoma): 5.69 µM [middle of 4 runs]
- GI50 (HT29 colon): 0.0197 µM and 0.0193 µM and 0.0272 µM
- GI50 (SNB-75 CNS): < 0.01 µM and 0.00468 µM and < 0.0111 µM
- TGI (SNB-75 CNS): 0.0257 µM and 0.0563 µM and 0.0587 µM
- GI50 (NCI-H460 lung): 8.34 µM [middle of 4 runs]
- GI50 (SF-268 CNS): 70.4 nM [middle of 4 runs]
- GI50 (OVCAR-8 ovarian): 55.8 nM [middle of 4 runs]

Compound: N=C(N)c1ccc(-c2ccc(-c3ccc(Cl)cc3Cl)s2)cc1
- GI50 (UO-31 renal): 1.58 µM
- TGI (UO-31 renal): 3 µM
- GI50 (OVCAR-5 ovarian): 1.79 µM
- TGI (OVCAR-5 ovarian): 3.29 µM
- GI50 (ACHN renal): 1.7 µM
- TGI (ACHN renal): 3.07 µM
- GI50 (HOP-92 NSCLC): 1.58 µM
- TGI (HOP-92 NSCLC): 3.17 µM
- GI50 (BT-549 breast): 2.18 µM
- TGI (BT-549 breast): 6.62 µM
- GI50 (DU-145 prostate): 1.79 µM
- TGI (DU-145 prostate): 3.19 µM
- GI50 (HL-60(TB) leukemia): 1.97 µM
- TGI (HL-60(TB) leukemia): 4.49 µM
- GI50 (MALME-3M melanoma): 1.74 µM
- TGI (MALME-3M melanoma): 3.29 µM
- GI50 (UACC-62 melanoma): 1.73 µM
- TGI (UACC-62 melanoma): 3.19 µM
- GI50 (SF-295 CNS): 1.77 µM
- TGI (SF-295 CNS): 3.19 µM

Compound: N=C(N)c1ccc(-c2ccc(-c3ccc(Cl)c(Cl)c3)s2)nc1
- GI50 (SK-MEL-2 melanoma): 3.43 µM
- TGI (SK-MEL-2 melanoma): 15.2 µM
- GI50 (SK-OV-3 ovarian): 8.06 µM
- TGI (SK-OV-3 ovarian): 31.8 µM
- GI50 (BT-549 breast): 3.18 µM
- TGI (BT-549 breast): 31.6 µM
- GI50 (HL-60(TB) leukemia): 1.89 µM
- TGI (HL-60(TB) leukemia): 4.39 µM
- GI50 (NCI-H226 lung): 1.94 µM
- TGI (NCI-H226 lung): 4.63 µM
- GI50 (UACC-257 melanoma): 2.14 µM
- TGI (UACC-257 melanoma): 4.77 µM
